Source: publication PMC12693156, “Antiprotozoal Aminosteroid Alkaloids from Buxus obtusifolia (Mildbr.) Hutch” (Molecules, 2025)
Like-named read-outs stand apart in the source and are kept apart here.

How the values were obtained:
[1] = system: Plasmodium falciparum (Pf), NF54 strain; assay: In vitro activity against Plasmodium falciparum (intraerythrocytic form, NF54 strain); type: cell-based; conditions: for IC50: Plasmodium falciparum
Protocol: (§1) In vitro biological activity against Trypanosoma brucei rhodesiense (bloodstream trypomastigotes, STIB 900 strain), Plasmodium falciparum (intraerythrocytic form, NF54 strain) and cytotoxicity assay against rat skeletal myoblasts (L6 cell line) were carried out at the Swiss Tropical and Public Health Institute (Swiss TPH, Allschwil, Switzerland) in accordance with the established standard procedures, in exactly the same manner and with the same cell lines as described recently.

[2] = Cytotoxicity assay against rat skeletal myoblasts (L6 cell line); type: cell-based
Protocol: as §1

[3] = system: Trypanosoma brucei rhodesiense (Tbr), STIB 900 strain; assay: In vitro activity against Trypanosoma brucei rhodesiense (bloodstream trypomastigotes, STIB 900 strain); type: cell-based
Protocol: as §1

[4] = system: Trypanosoma brucei rhodesiense (Tbr), STIB 900 strain; set-up: method as in PMID 40076324; conditions: separately tested in a recent study; cited from earlier work
[5] = system: Plasmodium falciparum (Pf), NF54 strain; set-up: method as in PMID 40076324; conditions: separately tested in a recent study; cited from earlier work
[6] = NF54, mean of two separate IC50 determinations ± absolute deviation, compounds tested as bis- or mono-trifluoroacetates, read-out: Pf IC50
[7] = Trypanosoma brucei rhodesiense, mean of two separate IC50 determinations ± absolute deviation, compounds tested as bis- or mono-trifluoroacetates, read-out: Tbr IC50

| SMILES | IC50 [1, 6] | IC50 [3, 7] | other results |
| --- | --- | --- | --- |
| CN[C@H]1[C@H](O)C[C@]23C[C@]24CC[C@]2(C)[C@@H]([C@H](C)N(C)C)CC[C@@]2(C)[C@@H]4CC[C@H]3C1(C)C [Compound 1, cycloprotobuxoline-C] | 28 ± 0.7 µM | 6.7 ± 3.3 µM | IC50 [2]: > 100 µM |
| CN[C@H]1[C@H](O)C[C@]23C[C@]24CC[C@]2(C)[C@@H]([C@H](C)N(C)C)CC[C@@]2(C)[C@@H]4CC[C@H]3[C@]1(C)COC(=O)c1cc(OC)c(OC)c(OC)c1 [Compound 5, 29-trimethoxybenzoyloxy cycloprotobuxoline-C] | 0.5 µM | 1.6 ± 0.7 µM | IC50 ([1]; NF54, isolated compounds, tested as trifluoroacetate salts, molar IC50 calculated with mass of the salt, read-out: IC50 against Pf (antiplasmodial activity)): < 1 µM |
| CN[C@@H](C)[C@H]1CC[C@@]2(C)[C@@H]3C=C[C@H]4C(C)(C)[C@@H](N(C)C)CC[C@@]45C[C@@]35CC[C@]12C [Compound 12, deoxycyclovirobuxeine-B] | 5.4 ± 1.2 µM | 0.8 ± 0.3 µM | IC50 ([3]; Trypanosoma brucei, isolated compounds, tested as trifluoroacetate salts, molar IC50 calculated with mass of the salt, read-out: IC50 against Tbr (antitrypanosomal activity)): < 1 µM |
| CN[C@@H](C)[C@H]1CC[C@@]2(C)[C@@H]3CC[C@H]4[C@]5(C)COCN(C)[C@H]5CC[C@@]45C[C@@]35CC[C@]12C [Compound 15, N20-demethyl deoxycyclobuxoxazine-A] | 5.8 ± 0.4 µM | 6.6 ± 3.5 µM |  |
| CN[C@H]1CC[C@]23C[C@]24CC[C@]2(C)[C@@H](C(C)=O)[C@H](OC)C[C@@]2(C)[C@@H]4CC[C@H]3C1 [Compound 16, obtusibuxeine-A] | 13 ± 1.4 µM | 22 ± 1.7 µM | SI Pf (selectivity index) ([1]; cytotoxic IC50 (L6) / IC50 Pf): 3; IC50 [2]: 45 ± 5.1 µM; SI Tbr (selectivity index) ([3]; cytotoxic IC50 (L6) / IC50 Tbr): 2 |
| CC(=O)OC1C2OC3(C=CC(NC(=O)c4ccccc4)C(C)(C)C13)CC1=CCC3(C)C(C(C)N(C)C)C(O)CC3(C)C12 (stereo not drawn) [Compound 21, obtusiepoxamine-A] | 10 ± 1.1 µM | 2.2 ± 0.2 µM |  |
| CC(=O)O[C@H]1[C@@H](O)[C@@H]2C(=CC[C@]3(C)[C@@H]([C@H](C)N(C)C)CC[C@@]23C)CC2=CC[C@H](NC(=O)c3ccccc3)C(C)(C)[C@@H]21 [Compound 23, 16-deoxyobtusidienolamine-A] | 30 ± 6.5 µM | 6.5 ± 0.4 µM |  |
| CCN(CC)CCCC(C)Nc1ccnc2cc(Cl)ccc12 (stereo not drawn) [chloroquine, reference compound] |  |  | IC50 ([1]; NF54, read-out: IC50 Pf): 2 ng/mL; IC50 ([1]; NF54, read-out: Pf IC50): 0.012 µM |
| Nc1nc(N)nc(Nc2ccc([As]3SCC(CO)S3)cc2)n1 (stereo not drawn) [melarsoprol, reference compound] |  |  | IC50 ([3]; Trypanosoma brucei, read-out: IC50 Tbr): 4 ng/mL; IC50 ([3]; Trypanosoma brucei, read-out: Tbr IC50): 0.013 ± 0.001 µM |
| COc1cc([C@@H]2c3cc4c(cc3[C@H](O)[C@H]3COC(=O)[C@H]23)OCO4)cc(OC)c1OC [podophyllotoxin, reference compound] |  |  | IC50 ([2]; Table 1, crude extracts and acid-base fractions, mean of two determinations ± absolute deviation, read-out: IC50 Cytotox. L6): 7 ± 2 ng/mL |
| O=C([O-])C(F)(F)F.[Na+] [sodium trifluoroacetate] |  |  | activity against the target parasites (Tbr) [4]: inactive; activity against the target parasites (Pf) [5]: inactive |
